The term EC50 denotes the midpoint of the concentration-response curve.

The target of this test is human GPR119 (Homo sapiens (Human), UniProt Q8TDV5). The experiment in a line: AlphaScreen cAMP assay in Min-6/hGPR119 cells (GPR119 activation, intracellular cAMP). In kind it is cell-based. To be noted: MIN6 cells stably transfected with human GPR119; 45 minutes' incubation at RT; AlphaScreen cAMP Assay Kit. The protocol: The compounds of formula I according to the invention are GPR119 agonists. The effect of the compounds on the activation of GPR119 and on the stimulation of intracellular cAMP concentration is determined using the AlphaScreen cAMP Assay Kit (Cat. No. #6760625R) made by PerkinElmer.
human GPR119, sequence (Q8TDV5 whole entry): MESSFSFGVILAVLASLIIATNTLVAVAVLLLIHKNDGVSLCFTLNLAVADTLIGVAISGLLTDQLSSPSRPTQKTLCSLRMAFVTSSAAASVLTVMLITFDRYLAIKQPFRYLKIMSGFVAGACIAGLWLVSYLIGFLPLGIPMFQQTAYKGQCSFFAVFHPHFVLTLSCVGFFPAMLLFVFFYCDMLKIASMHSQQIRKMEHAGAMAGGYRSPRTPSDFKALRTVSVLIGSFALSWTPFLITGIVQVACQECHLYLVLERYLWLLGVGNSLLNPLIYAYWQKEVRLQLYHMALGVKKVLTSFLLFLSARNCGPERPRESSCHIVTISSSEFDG
MIN6 cells [Miyazaki J et al. Endocrinology. 1990 July; 127(1):126-32] were stably transfected with an expression vector for human GPR119 cDNA (Acc. No. NP_848566). Min-6/hGPR119 cells are cultured in DMEM, 10% FBS, 50 μM β-mercaptoethanol, 0.3 mg/mL Geniticin, 2 mM GlutaMAX at 37° C. 5% CO2. For the assay, the cells are placed in Optiplates (white, 384-well, 160W-barcoded, TC, sterile with lid, Cat. No. #6007688 (Perkin Elmer); 10000 cells/well; 50 μl). The plates covered with lids are then incubated for 24 hours at 37° C./5% CO2.
After the medium has been sucked out of the wells completely, 10 μl of the test compound are added, the compounds are diluted beforehand with stimulating buffer (140 mM NaCl, 3.6 mM KCl, 0.5 mM NaH2PO4, 0.5 mM MgSO4, 1.5 mM CaCl2, 10 mM Hepes, 5 mM NaHCO3; pH 7.4. 0.5 mM IBMX and 0.1% BSA, the final DMSO concentration is 1%). After 45 minutes' incubation at RT, the cAMP concentrations are determined using the AlphaScreen cAMP Assay Kit (Cat. No. #6760625R from PerkinElmer).
Compound `CCC1CC(=O)NN=C1c1ccc2nc(-c3ccc(OCCN4[C@@H](C)CC[C@@H]4C)cc3)oc2c1` (stereo in doubt) [Example 250, 6-(2-{4-[2-((2R,5R)-trans-2,5-dimethylpyrrolidin-1-yl)-ethoxy]-phenyl}-benzoxazol-6-yl)-5-ethyl-4,5-dihydro-2H-pyridazin-3-one] yielded an EC50 of 235 nM. Consider `CCC[C@H]1C(=O)NN=C(c2ccc3nc(C4CC4)oc3c2)[C@@H]1C` (stereo in doubt) [Example 253, 6-(2-cyclopropyl-benzoxazol-6-yl)-5-methyl-4-propyl-4,5-dihydro-2H-pyridazin-3-one], for which the EC50 was 299 nM. `C[C@H]1CC(=O)NN=C1c1ccc2nc(-c3ccccc3)oc2c1` [Example 1, (S)-5-methyl-6-(2-phenyl-benzoxazol-6-yl)-4,5-dihydro-2H-pyridazin-3-one] yielded an EC50 of 660 nM. Compound `C[C@H]1CC(c2ccc3nc(-c4ccccc4)oc3c2)=NNC1=O` [Example 2, (S)-4-methyl-6-(2-phenyl-benzoxazol-6-yl)-4,5-dihydro-2H-pyridazin-3-one] had an EC50 of 787 nM. The compound `C[C@@H]1CC(=O)NN=C1c1ccc2nc(-c3ccccc3)oc2c1` [Example 3, (R)-5-methyl-6-(2-phenyl-benzoxazol-6-yl)-4,5-dihydro-2H-pyridazin-3-one] returned an EC50 of 82 nM.

Regarding `C[C@@H]1CC(c2ccc3nc(-c4ccccc4)oc3c2)=NNC1=O` [Example 4, (R)-4-methyl-6-(2-phenyl-benzoxazol-6-yl)-4,5-dihydro-2H-pyridazin-3-one], a half-maximal response (EC50) required 596 nM. In turn, `O=C1NN=C(c2ccc3nc(-c4ccccc4)oc3c2)C2CC12` (stereo not drawn) [Example 5, 5-(2-phenyl-benzoxazol-6-yl)-3,4-diaza-bicyclo[4.1.0]hept-4-en-2-one] registered an EC50 of 243 nM. As for `Cc1c(C2=NNC(=O)C3CC23)ccc2nc(-c3ccccc3)oc12` (stereo not drawn) [Example 6, 5-(7-methyl-2-phenyl-benzoxazol-6-yl)-3,4-diaza-bicyclo[4.1.0]hept-4-en-2-one], the midpoint of the response, the EC50, lay at 1700 nM. `C=CCC1CC(c2ccc3nc(-c4ccccc4)oc3c2)=NNC1=O` (stereo not drawn) [Example 7, 4-allyl-6-(2-phenyl-benzoxazol-6-yl)-4,5-dihydro-2H-pyridazin-3-one] gave an EC50 of 892 nM. Regarding `CCCC1CC(=O)NN=C1c1ccc2nc(-c3ccccc3)oc2c1` (stereo not drawn) [Example 8, 6-(2-phenyl-benzoxazol-6-yl)-5-propyl-4,5-dihydro-2H-pyridazin-3-one], the EC50 was determined as 874 nM. The compound `CCCC1CC(c2ccc3nc(-c4ccccc4)oc3c2)=NNC1=O` (stereo not drawn) [Example 9, 6-(2-phenyl-benzoxazol-6-yl)-4-propyl-4,5-dihydro-2H-pyridazin-3-one] had an EC50 of 834 nM. The value for `O=C1NN=C(c2ccc3nc(-c4ccccc4)oc3c2)C2CCC12` (stereo not drawn) [Example 10, 5-(2-phenyl-benzoxazol-6-yl)-3,4-diaza-bicyclo[4.2.0]oct-4-en-2-one] was 365 nM. `Cc1cc(C2=NNC(=O)C3CC23)cc2oc(-c3ccccc3)nc12` (stereo not drawn) [Example 11, 5-(4-methyl-2-phenyl-benzoxazol-6-yl)-3,4-diaza-bicyclo[4.1.0]hept-4-en-2-one] returned an EC50 of more than 10000 nM. For `Cc1cccc(-c2nc3ccc(C4=NNC(=O)C5CC45)cc3o2)c1` (stereo not drawn) [Example 12, 5-(2-m-tolyl-benzoxazol-6-yl)-3,4-diaza-bicyclo[4.1.0]hept-4-en-2-one], the EC50 came to 246 nM. Compound `Cc1ccc(-c2nc3ccc(C4=NNC(=O)C5CC45)cc3o2)cc1` (stereo not drawn) [Example 13, 5-(2-p-tolyl-benzoxazol-6-yl)-3,4-diaza-bicyclo[4.1.0]hept-4-en-2-one] registered an EC50 of 153 nM. Take `Cc1ccc(-c2nc3ccc(C4=NNC(=O)C5CC45)cc3o2)cc1C` (stereo not drawn) [Example 14, 5-[2-(3,4-dimethyl-phenyl)-benzoxazol-6-yl]-3,4-diaza-bicyclo[4.1.0]hept-4-en-2-one]: the midpoint of the response, the EC50, lay at 264 nM. `O=C1NN=C(c2ccc3nc(-c4ccc(CN5CCCCC5)cc4)oc3c2)C2CC12` (stereo not drawn) [Example 15, 5-[2-(4-piperidin-1-ylmethyl-phenyl)-benoxazol-6-yl]-3,4-diaza-bicyclo[4.1.0]hept-4-en-2-one]: a half-maximal effect (EC50) was put at 701 nM. The compound `O=C1CCC(c2ccc3nc(-c4ccccc4)oc3c2)=NN1` [Example 16, 6-(2-phenyl-benzoxazol-6-yl)-4,5-dihydro-2H-pyridazin-3-one] yielded an EC50 of 314 nM. In turn, `O=C1NN=C(c2ccc3nc(-c4cccc(F)c4)oc3c2)C2CC12` (stereo not drawn) [Example 17, 5-[2-(3-fluoro-phenyl)-benzoxazol-6-yl]-3,4-diaza-bicyclo[4.1.0]hept-4-en-2-one] returned an EC50 of 223 nM. For `O=C1NN=C(c2ccc3nc(-c4ccc(F)cc4)oc3c2)C2CC12` (stereo not drawn) [Example 18, 5-[2-(4-fluoro-phenyl)-benzoxazol-6-yl]-3,4-diaza-bicyclo[4.1.0]hept-4-en-2-one], a half-maximal effect (EC50) was put at 153 nM. The compound `O=C1NN=C(c2ccc3nc(-c4ccc(F)cc4)oc3c2)C2CCC12` (stereo not drawn) [Example 19, 5-[2-(4-fluoro-phenyl)-benzoxazol-6-yl]-3,4-diaza-bicyclo[4.2.0]oct-4-en-2-one] yielded a half-maximal effective concentration (EC50) of 469 nM. `O=C1NN=C(c2ccc3nc(-c4ccccc4F)oc3c2)C2CC12` (stereo not drawn) [Example 20, 5-[2-(2-fluoro-phenyl)-benzoxazol-6-yl]-3,4-diaza-bicyclo[4.1.0]hept-4-en-2-one] had an EC50 of 157 nM. In turn, `CC1(C)CC(c2ccc3nc(-c4ccccc4)oc3c2)=NNC1=O` [Example 21, 4.4-dimethyl-6-(2-phenyl-benzoxazol-6-yl)-4,5-dihydro-2H-pyridazin-3-one] showed an EC50 of more than 10000 nM. With `O=C1NN=C(c2ccc3nc(-c4ccc(CN5CCOCC5)cc4)oc3c2)C2CC12` (stereo not drawn) [Example 22, 5-[2-(4-morpholin-4-ylmethyl-phenyl)-benzoxazol-6-yl]-3,4-diaza-bicyclo[4.1.0]hept-4-en-2-one], the concentration giving a half-maximal response (EC50) worked out at 1750 nM.

Turning to `CC(C)(C)OC(=O)N1CCN(Cc2ccc(-c3nc4ccc(C5=NNC(=O)C6CC56)cc4o3)cc2)CC1` (stereo not drawn) [Example 23, tert.butyl 4-{4-[6-(5-oxo-3,4-diaza-bicyclo[4.1.0]hept-2-en-2-yl)-benzoxazol-2-yl]-benzyl}-piperazine-1-carboxylate], the EC50 was found to be 1350 nM.

Turning to `Cc1ccc(-c2nc3ccc(C4=NNC(=O)[C@@H](C)[C@H]4C)cc3o2)s1` [Example 24, (4S,5R)-4,5-dimethyl-6-[2-(5-methyl-thiophen-2-yl)-benzoxazol-6-yl]-4,5-dihydro-2H-pyridazin-3-one], a half-maximal response (EC50) required 5100 nM.

Take `C[C@@H]1C(c2ccc3nc(-c4ccccc4)oc3c2)=NNC(=O)[C@@H]1C` [Example 25, (4R,5S)-4,5-dimethyl-6-(2-phenyl-benzoxazol-6-yl)-4,5-dihydro-2H-pyridazin-3-one]: the midpoint of the response, the EC50, lay at 2370 nM. Consider `C[C@@H]1C(=O)NN=C(c2ccc3nc(-c4ccccc4)oc3c2)[C@H]1C` [Example 26, (4S,5S)-4,5-dimethyl-6-(2-phenyl-benzoxazol-6-yl)-4,5-dihydro-2H-pyridazin-3-one], for which a half-maximal response (EC50) required 166 nM. To `CO[C@@H]1CC(=O)NN=C1c1ccc2nc(-c3ccccc3)oc2c1` [Example 27, (R)-5-methoxy-6-(2-phenyl-benzoxazol-6-yl)-4,5-dihydro-2H-pyridazin-3-one] belongs 444 nM; to `CO[C@H]1CC(=O)NN=C1c1ccc2nc(-c3ccccc3)oc2c1` [Example 28, (5S)-5-methoxy-6-(2-phenyl-1,3-benzoxazol-6-yl)-2,3,4,5-tetrahydropyridazin-3-one], 213 nM. Compound `CCC1CC(=O)NN=C1c1ccc2nc(-c3ccccc3)oc2c1` (stereo not drawn) [Example 29, 5-ethyl-6-(2-phenyl-benzoxazol-6-yl)-4,5-dihydro-2H-pyridazin-3-one] came in with an EC50 of 181 nM. The value for `CC[C@@H]1CC(=O)NN=C1c1ccc2nc(-c3ccccc3)oc2c1` [Example 31, (R)-5-ethyl-6-(2-phenyl-benzoxazol-6-yl)-4,5-dihydro-2H-pyridazin-3-one] was 66 nM; that for `CC(C)C1CC(=O)NN=C1c1ccc2nc(-c3ccccc3)oc2c1` (stereo not drawn) [Example 32, 5-isopropyl-6-(2-phenyl-benzoxazol-6-yl)-4,5-dihydro-2H-pyridazin-3-one] was 869 nM. On to `CCC1CC(=O)NN=C1c1ccc2nc(-c3ccc(OCc4ccccc4)cc3)oc2c1` (stereo not drawn) [Example 33, 6-[2-(4-benzyloxy-phenyl)-benzoxazol-6-yl]-5-ethyl-4,5-dihydro-2H-pyridazin-3-one], for which the 50% effective concentration (EC50) was determined as 70 nM. The value for `CC1CC(=O)NN=C1c1ccc2nc(-c3cccc(OCc4ccccc4)c3)oc2c1` (stereo not drawn) [Example 34, 6-[2-(3-benzyloxy-phenyl)-benzoxazol-6-yl]-5-methyl-4,5-dihydro-2H-pyridazin-3-one] was 193 nM; that for `CCC1CC(=O)NN=C1c1ccc2nc(-c3cccc(OCc4ccccc4)c3)oc2c1` (stereo not drawn) [Example 35, 6-[2-(3-benzyloxy-phenyl)-benzoxazol-6-yl]-5-ethyl-4,5-dihydro-2H-pyridazin-3-one] was 148 nM.

Values taken from US8772323B2, “Benzoxazole- and tetrahydrobenzoxazole-substituted pyridazinones as GPR119 agonists” (Boehringer Ingelheim International GmbH, priority 2010, dated 2014).
